Source: DBAASP
Values after ≈ are worked out from the molar mass of the structure shown. Values joined by “and” are separate entries in the source; they are usually repeats but may differ in a detail not shown here. Equal values may be shown once. Each block holds one compound with its values, some of them ahead of it.

What was measured:
Assay in all cases: ≥ marks a high value that may be exact or a test limit, other limits are often not marked, values filed in µg/mL are converted to µM
Bacillus megaterium = test system: Bacillus megaterium
Staphylococcus aureus = test system: Staphylococcus aureus
[1] = test system: Staphylococcus aureus ATCC 33591
[2] = test system: Pseudomonas aeruginosa ATCC 27853
[3] = test system: Staphylococcus aureus ATCC 25923
[4] = test system: Staphylococcus epidermidis ATCC 35984
[5] = test system: Escherichia coli ATCC 11219
[6] = test system: Staphylococcus aureus ATCC 6538
[7] = test system: Salmonella enterica subsp. enterica serovar Typhimurium ATCC 14028
[8] = test system: Klebsiella pneumoniae ATCC 10031
[9] = test system: Pseudomonas aeruginosa ATCC 13388
[10] = test system: Pseudomonas syringae pv. syringae DSM 10604
Botrytis cinerea = test system: Botrytis cinerea
[11] = test system: Pseudomonas syringae pv. tomato DC3000
[12] = test system: Pectobacterium carotovorum subsp. carotovorum DSM 30168
[13] = test system: Xanthomonas vesicatoria DSM 50861
Alternaria alternata = test system: Alternaria alternata
[14] = test system: Clavibacter michiganensis subsp. michiganensis DSM 46294
[15] = test system: Pseudomonas corrugata DSM 7228
Cladosporium herbarum = test system: Cladosporium herbarum
[16] = test system: Salmonella enterica subsp. enterica serovar Enteritidis ATCC 13076
[17] = test system: Klebsiella pneumoniae ATCC 13883
[18] = test system: Staphylococcus aureus ATCC BAA-39
[19] = test system: Staphylococcus aureus ATCC 43300
[20] = test system: Escherichia coli ATCC 25922
[21] = test system: Listeria monocytogenes ATCC 19115
[22] = test system: Escherichia coli BL21(DE3)
Cupriavidus necator H16 = test system: Cupriavidus necator H16
Escherichia coli JM109 = test system: Escherichia coli JM109
[23] = test system: Pseudomonas putida GPp104
[24] = test system: Xanthomonas arboricola pv. pruni CFBP 5563
[25] = test system: Xanthomonas fragariae Xf349-9A
[26] = test system: Erwinia amylovora PMV 6076
[27] = test system: Xanthomonas campestris pv. Vesicatoria 2133-2
[28] = test system: Pseudomonas syringae pv. syringae EPS 94
[29] = test system: Pseudomonas syringae pv. actinidiae Psa3700.1.1

Compound: CC[C@H](C)[C@H](NC(=O)[C@H](Cc1cnc[nH]1)NC(=O)[C@@H]1CCCN1C(=O)[C@@H](NC(=O)[C@H](CC(C)C)NC(=O)[C@H](CO)NC(=O)[C@H](CC(C)C)NC(=O)[C@@H](N)Cc1ccccc1)[C@@H](C)CC)C(=O)N[C@H](C(=O)N[C@@H](CO)C(=O)NCC(=O)N[C@H](C(=O)N[C@@H](C)C(=O)N[C@@H](C)C(=O)N[C@@H](CC(C)C)C(=O)N[C@@H](C)C(=O)N[C@@H](CCCCN)C(=O)N[C@@H](Cc1cnc[nH]1)C(=O)N[C@@H](CC(C)C)C(=O)NCC(=O)O)C(C)C)C(C)C [FLSLIPHIVSGVAALAKHLG]
- MIC (Bacillus megaterium): 3.1 µM (≈ 6.33 µg/mL)
- MIC (Staphylococcus aureus): 12.5 µM (≈ 25.5 µg/mL)

Compound: CC[C@H](C)[C@H](NC(=O)CN)C(=O)NCC(=O)N[C@@H](CCCCN)C(=O)N[C@@H](Cc1ccccc1)C(=O)N[C@@H](CC(C)C)C(=O)N[C@@H](CCCCN)C(=O)N[C@@H](CCCCN)C(=O)N[C@@H](C)C(=O)N[C@@H](CCCCN)C(=O)N[C@@H](CCCCN)C(=O)N[C@@H](Cc1ccccc1)C(N)=O [GIGKFLKKAKKF]
- MIC [1]: ≥ 375 µM
- MIC [2]: 4.15 µM (≈ 5.65 µg/mL)
- MIC [3]: 375 µM (≈ 512 µg/mL)
- MIC [4]: ≥ 33.2 µM

Compound: CC[C@H](C)[C@H](NC(=O)CN)C(=O)N[C@@H](Cc1cnc[nH]1)C(=O)N[C@@H](CC(=O)O)C(=O)N[C@H](C(=O)N[C@@H](C)C(=O)N[C@@H](CCCCN)C(=O)N[C@@H](Cc1ccc(O)cc1)C(=O)NCC(=O)N[C@@H](CCCCN)C(=O)N1CCC[C@H]1C(=O)N[C@@H](CO)C(N)=O)[C@@H](C)CC [GIHDIAKYGKPS]
- MIC [5]: ≥ 50 µM
- MIC [6]: 5 µM (≈ 6.42 µg/mL)
- MIC [7]: > 50 µM
- MIC [8]: 20 µM (≈ 25.7 µg/mL)
- MIC [9]: ≥ 50 µM

Compound: CC[C@H](C)[C@H](NC(=O)[C@H](CC(C)C)NC(=O)[C@H](CCCCN)NC(=O)[C@H](CCCN=C(N)N)NC(=O)[C@@H](N)CCCCN)C(=O)N[C@@H](Cc1ccccc1)C(=O)N[C@@H](CC(C)C)C(=O)N[C@@H](C)C(=O)N[C@@H](C)C(=O)N[C@@H](Cc1ccccc1)C(=O)N[C@@H](CC(C)C)C(=O)N[C@@H](C)C(=O)N[C@@H](C)C(=O)N[C@@H](CC(C)C)C(=O)N[C@@H](C)C(=O)N[C@@H](CC(C)C)C(=O)N[C@@H](Cc1ccccc1)C(=O)N[C@@H](CCCCN)C(=O)N[C@@H](CCCCN)C(=O)N[C@@H](CCCN=C(N)N)C(N)=O [KRKLIFLAAFLAALALFKKR]
- MIC [10]: 17.2 µM (≈ 40 µg/mL)
- MIC (Botrytis cinerea): ≥ 43.1 µM
- MIC [11]: 17.2 µM (≈ 40 µg/mL)
- MIC [12]: 17.2 µM (≈ 40 µg/mL)
- MIC [13]: 8.62 µM (≈ 20 µg/mL)
- MIC (Alternaria alternata): ≥ 43.1 µM
- MIC [14]: 1.08 µM (≈ 2.5 µg/mL)
- MIC [15]: 17.2 µM (≈ 40 µg/mL)
- MIC (Cladosporium herbarum): 17.2 µM (≈ 40 µg/mL)

Compound: CC[C@H](C)[C@H](NC(=O)[C@H](CCCCN)NC(=O)[C@H](CCCN=C(N)N)NC(=O)[C@H](CC(C)C)NC(=O)[C@H](Cc1ccccc1)NC(=O)[C@H](CCCN=C(N)N)NC(=O)CNC(=O)[C@H](Cc1ccccc1)NC(=O)[C@H](CCCN=C(N)N)NC(=O)CNC(=O)[C@H](CCCN=C(N)N)NC(=O)[C@H](CCC(N)=O)NC(=O)[C@@H](NC(=O)[C@@H](N)CC(C)C)C(C)C)C(=O)N[C@@H](CCCN=C(N)N)C(=O)O [LVQRGRFGRFLRKIR]
- MIC [16]: 4 µM and 5.66 µM
- MIC [17]: 8 µM and 16 µM
- MIC [18]: 5.66 µM and 16 µM
- MIC [19]: 5.66 µM and 16 µM
- MIC [20]: 16 µM (≈ 30.4 µg/mL)
- MIC [3]: 8 µM and 16 µM
- MIC [21]: 5.66 µM and 11.3 µM

Compound: CC[C@H](C)[C@H](NC(=O)[C@H](Cc1ccc(O)cc1)NC(=O)[C@@H](NC(=O)[C@@H]1CCCN1C(=O)[C@H](CCCN=C(N)N)NC(=O)[C@@H](NC(=O)CNC(=O)[C@@H](N)CCCN=C(N)N)C(C)C)C(C)C)C(=O)N1CCC[C@H]1C(=O)N[C@@H](CCC(N)=O)C(=O)N1CCC[C@H]1C(=O)N[C@@H](CCCN=C(N)N)C(=O)N1CCC[C@H]1C(=O)N1CCC[C@H]1C(=O)N[C@@H](Cc1cnc[nH]1)C(=O)N1CCC[C@H]1C(=O)N[C@@H](CCCN=C(N)N)C(=O)N[C@@H](CC(C)C)C(=O)O [RGVRPVYIPQPRPPHPRL]
- MIC [22]: 0.313 µM (≈ 0.668 µg/mL)
- MIC (Cupriavidus necator H16): 25 µM (≈ 53.4 µg/mL)
- MIC (Escherichia coli JM109): 6.25 µM (≈ 13.3 µg/mL)
- MIC [23]: 6.25 µM (≈ 13.3 µg/mL)

Results, then the compound that gave them:

- MIC [22]: 1.25 µM (≈ 2.74 µg/mL)
- MIC (Cupriavidus necator H16): ≥ 50 µM
- MIC (Escherichia coli JM109): 25 µM (≈ 54.7 µg/mL)
- MIC [23]: 12.5 µM (≈ 27.4 µg/mL)
Compound: CC[C@H](C)[C@H](NC(=O)[C@H](Cc1ccc(O)cc1)NC(=O)[C@@H](NC(=O)[C@@H]1CCCN1C(=O)[C@H](CCCN=C(N)N)NC(=O)[C@@H]1CCCN1C(=O)[C@H](CC(C)C)NC(=O)[C@@H](N)CCCN=C(N)N)C(C)C)C(=O)N1CCC[C@H]1C(=O)N[C@@H](CCC(N)=O)C(=O)N1CCC[C@H]1C(=O)N[C@@H](CCCN=C(N)N)C(=O)N1CCC[C@H]1C(=O)N1CCC[C@H]1C(=O)N[C@@H](Cc1cnc[nH]1)C(=O)N1CCC[C@H]1C(=O)N[C@@H](CCCN=C(N)N)C(=O)N[C@@H](CC(C)C)C(=O)O [RLPRPVYIPQPRPPHPRL]

- MIC [16]: 4 µM (≈ 8.13 µg/mL)
- MIC [17]: 4 µM (≈ 8.13 µg/mL)
- MIC [18]: 4 µM (≈ 8.13 µg/mL)
- MIC [19]: 2 µM and 4 µM
- MIC [20]: 5.66 µM and 8 µM
- MIC [3]: 2.83 µM and 4 µM
- MIC [21]: 2.83 µM and 4 µM
Compound: CC[C@H](C)[C@H](NC(=O)[C@@H](NC(=O)[C@@H](NC(=O)[C@@H](NC(=O)[C@@H](NC(=O)[C@H](CCCCN)NC(=O)[C@@H]1CCCN1C(=O)[C@H](CCCN=C(N)N)NC(=O)[C@H](Cc1ccccc1)NC(=O)[C@H](CCCN=C(N)N)NC(=O)[C@@H](N)CCCN=C(N)N)C(C)C)[C@@H](C)O)[C@@H](C)CC)[C@@H](C)O)C(=O)N[C@@H](CCC(N)=O)C(=O)NCC(=O)N[C@@H](CO)C(=O)N[C@@H](C)C(=O)N[C@@H](CCCN=C(N)N)C(=O)N[C@@H](Cc1ccccc1)C(=O)O [RRFRPKVTITIQGSARF]

- MIC [24]: ≥ 50 µM
- MIC [25]: ≥ 50 µM
- MIC [26]: ≥ 50 µM
- MIC [27]: ≥ 50 µM
- MIC [28]: ≥ 50 µM
- MIC [29]: ≥ 50 µM
Compound: CC(C)C[C@H](NC(=O)[C@H](CCCN=C(N)N)NC(=O)[C@H](CC(N)=O)NC(=O)[C@H](CCCCN)NC(=O)[C@H](CCC(=O)O)NC(=O)[C@H](CCC(=O)O)NC(=O)[C@H](CCC(=O)O)NC(=O)[C@@H](NC(=O)[C@H](CC(C)C)NC(=O)[C@H](CCCCN)NC(=O)[C@@H](NC(=O)[C@H](CCCCN)NC(=O)[C@H](CCCCN)NC(=O)[C@@H](N)[C@@H](C)O)[C@@H](C)O)[C@@H](C)O)C(N)=O [TKKTKLTEEEKNRL]

- MIC [5]: 10 µM (≈ 16.3 µg/mL)
- MIC [6]: 4 µM (≈ 6.53 µg/mL)
- MIC [7]: 10 µM (≈ 16.3 µg/mL)
- MIC [8]: 20 µM (≈ 32.7 µg/mL)
- MIC [9]: 4 µM (≈ 6.53 µg/mL)
Compound: CC[C@H](C)[C@H](NC(=O)CNC(=O)[C@@H](N)Cc1c[nH]c2ccccc12)C(=O)N[C@@H](CCCN=C(N)N)C(=O)N[C@@H](CCCN=C(N)N)C(=O)N[C@H](C(=O)N[C@@H](CC(C)C)C(=O)N[C@@H](CCCCN)C(=O)N[C@@H](Cc1ccc(O)cc1)C(=O)NCC(=O)N[C@@H](CCCCN)C(=O)N[C@@H](CCCN=C(N)N)C(=O)N[C@@H](CO)C(=O)O)[C@@H](C)CC [WGIRRILKYGKRS]
